{
  "source": "patent US20030100550A1",
  "about": "“Carboxamide diazepin derivatives, preparation method, use as medicines, pharmaceutical compositions and use thereof” (priority 2002, published 2003)",
  "type_in_all_cases": "biochemical",
  "key": {"Cathepsin B": {"molecular_target": "T1, Cathepsin B (Homo sapiens, UniProt P07858)", "T1 construct": "purchased Calbiochem", "test": "Study of Cathepsin B inhibition (fluorescence, Z-arg-arg-AMC)", "conditions": "for Cathepsin B, percentage in parentheses beside IC50 value (% inhibition): printed beside 20 μM, meaning not explained; for IC50: substrate Z-arg-arg-AMC 20 μM, enzyme 16 ng/ml, 1 hour at ambient temperature", "procedure": "(§1) The products to be tested (10 mM) are diluted to […] in DMSO and distributed into Nunc polystyrene 96 well plates at a rate of 2 μl per well. Column 12 of the plate is reserved for the controls and therefore receives […] of DMSO (without products) per well. The plates are stored at −80° C. and thawed on the day of the experiment.\n(§2) The products are diluted to 50 μM by adding 38 μl of reaction buffer: sodium acetate 100 mM, EDTA 5 mM, DTT […] pH 5.5. The addition as well as all the operations by pipette are carried out with a CybiWell 96 tip pipette. After mixing the solutions, each product is transferred into 2 wells (duplicates) of a Greiner black 384 well plate at a rate of 10 μl per well. Two 96-well plates can therefore be tested in a 384-well plate.\n(§3) A solution of substrate at 50 μM, Z-Val-arg-AMC (Calbiochem), is prepared in the reaction buffer. The substrate, is then distributed into all the wells of the 384-well plate (20 μl per well).\n(§4) A solution of Cathepsin K at 12.5 ng/ml is prepared in the reaction buffer and distributed into all the wells of the 384-well plate (20 μl per well) except for the 16 wells serving as 100% inhibition controls (column 23 and 24, lines I to P) which receive 20 μl of enzyme-free buffer.\n(§5) The plates are then incubated 2H at ambient temperature, then read on Fluoroskan (Labsystems): excitation 390 nm; emission 460 nm\n(§6) The final concentrations of each of the reagents are: products 10 μM, substrate 20 μM, enzyme 5 ng/ml.\n(§7) The % inhibition for each of the products is calculated by using points at 0 and 100% inhibition of each plate as references. The products presenting a significant inhibition are then retested on a range of concentrations from 50 to 0.5 μM to determine an IC50.\nStudy of Cathepsin B Inhibition:\n(§8) Protocol identical to that of Cathepsin K except for:\nZ-arg-arg-AMC substrate (Calbiochem), solution at 50 μM, final concentration 20 μM\nCathepsin B (Calbiochem), solution at 40 ng/ml, final concentration 16 ng/ml\nIncubation for 1 hour at ambient temperature"}, "Papain": {"molecular_target": "T2, Papain (Carica papaya, UniProt P00784)", "T2 construct": "purchased Sigma", "T2 sequence (P00784 134-345)": "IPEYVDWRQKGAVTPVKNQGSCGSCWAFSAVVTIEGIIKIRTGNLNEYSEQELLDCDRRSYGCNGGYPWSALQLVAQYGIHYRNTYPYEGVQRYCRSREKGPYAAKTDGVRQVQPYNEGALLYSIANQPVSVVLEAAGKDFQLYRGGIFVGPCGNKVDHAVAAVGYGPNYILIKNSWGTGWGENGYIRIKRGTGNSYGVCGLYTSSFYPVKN", "test": "Study of Papain inhibition (fluorescence)", "conditions": "for IC50: enzyme 20 ng/ml, 30 minutes at ambient temperature; for Papain, percentage in parentheses beside IC50 value (% inhibition): printed beside 20 μM, meaning not explained", "procedure": "as §1, §2, §3, §4, §5, §6, §7\nStudy of Papain Inhibition:\nas §8\nPapain (Sigma), solution at 50 ng/ml, final concentration 20 ng/ml\nIncubation for 30 minutes at ambient temperature"}, "Cathepsin K": {"molecular_target": "T3, Cathepsin K (Homo sapiens, UniProt P43235)", "T3 sequence (P43235 115-329)": "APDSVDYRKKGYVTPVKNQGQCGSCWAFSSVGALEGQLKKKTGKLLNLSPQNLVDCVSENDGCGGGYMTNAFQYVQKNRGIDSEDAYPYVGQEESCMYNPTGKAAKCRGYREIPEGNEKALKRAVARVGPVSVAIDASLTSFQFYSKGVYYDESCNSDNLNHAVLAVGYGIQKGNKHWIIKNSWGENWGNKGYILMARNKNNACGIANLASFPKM", "test": "Study of Cathepsin K inhibition (fluorescence, Z-Val-arg-AMC)", "conditions": "substrate Z-Val-arg-AMC 20 μM, enzyme 5 ng/ml, 2H at ambient temperature; read-out: Cathepsin K IC50", "in_short": "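Recombinant cathepsin K (5 ng/ml final) with 20 μM Z-Val-Arg-AMC in 100 mM sodium acetate, 5 mM EDTA, DTT, pH 5.5; compounds screened at 10 μM in duplicate, 2 h at ambient temperature, fluorescence ex 390/em 460 nm. % inhibition vs plate 0/100% controls; actives retested 50–0.5 μM for IC50.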"}},
  "data": [
    {"smiles": "CC(C)(C)Oc1ccc(C[C@H](NC(=O)[C@@H]2CCCN3C(=O)CC[C@H](NC(=O)Nc4ccc(Oc5ccccc5)cc4)C(=O)N23)C(=O)C=[N+]=[N-])cc1", "note": "[Example 54, 9-[(9S)-[[(4-phenoxyphenyl)amino]carbonyl]amino]-N-[(2S)-4-diazo-1-[4-[(1,1-dimethyl)ethoxy]phenyl]-3-oxo-2-butyl]-6H-(1S)-pyridazino[1,2-a][1,2]diazepine-1-carboxamide]", "values": [
      {"measurement": "Cathepsin B, percentage in parentheses beside IC50 value (% inhibition)", "setting": "Cathepsin B", "value": 30, "unit": "%"},
      {"measurement": "IC50", "setting": "Papain", "value": 15, "unit": "µM"}
    ]},
    {"smiles": "C=CCOC(=O)CC[C@H](NC(=O)[C@@H]1CCCN2C(=O)CCC[C@H](NC(=O)NC3CCCCC3)C(=O)N12)C(=O)COC(=O)c1c(Cl)cccc1Cl", "note": "[Example 122, (2-propenyl)(4S)6-[(2,6-dichlorobenzoyl)oxy]-4-[[[(1S,9S)-9-[[(cyclohexylamino)carbonyl]amino]-octahydro-6,10-dioxo-o-6H-pyridazino[1,2-a][1,2]diazepine-1-yl]carbonyl]amino]-5-oxo-hexanoate]", "values": [
      {"measurement": "IC50", "setting": "Cathepsin B", "value": 0.7, "unit": "µM"},
      {"measurement": "Papain, percentage in parentheses beside IC50 value (% inhibition)", "setting": "Papain", "value": 45, "unit": "%"},
      {"measurement": "IC50", "setting": "Cathepsin K", "value": 18, "unit": "µM"}
    ]},
    {"smiles": "C=CCOC(=O)CC[C@H](NC(=O)[C@@H]1CCCN2C(=O)CC[C@H](NC(=O)Nc3ccc(Oc4ccccc4)cc3)C(=O)N12)C(=O)COC(=O)c1c(Cl)cccc1Cl", "note": "[Example 132, (2-propenyl)(4S)6-[(2,6-dichlorobenzoyl)oxy]-4-[[[(1S,9S)-9-[[[(4-phenoxyphenyl)amino]carbonyl]amino]-octahydro-6,10-dioxo-6H-pyridazino[1,2-a][1,2]diazepine-1-yl]carbonyl]amino]-5-oxo-hexanoate]", "values": [
      {"measurement": "IC50", "setting": "Cathepsin B", "value": 2, "unit": "µM"},
      {"measurement": "IC50", "setting": "Papain", "value": 6, "unit": "µM"},
      {"measurement": "IC50", "setting": "Cathepsin K", "value": 20, "unit": "µM"}
    ]},
    {"smiles": "[N-]=[N+]=CC(=O)[C@H](Cc1ccccc1)NC(=O)[C@@H]1CCCN2C(=O)CC[C@H](NC(=O)Nc3ccc(Oc4ccccc4)cc3)C(=O)N12", "note": "[Example 161, 9-[(9S)[[(4-phenoxyphenyl)amino]carbonyl]amino]-N-((2S)-4-diazo-1-phenyl-3-oxo-2-butyl)-octahydro-6,10-dioxo-6H-(1S)-pyridazino[1,2-a][1,2]diazepine-1-carboxamide]", "values": [
      {"measurement": "IC50", "setting": "Cathepsin B", "value": 9, "unit": "µM"},
      {"measurement": "IC50", "setting": "Papain", "value": 19, "unit": "µM"}
    ]},
    {"smiles": "C[C@H](NC(=O)[C@@H]1CCCN2C(=O)CC[C@H](NC(=O)NCCc3cccs3)C(=O)N12)C(=O)C=[N+]=[N-]", "note": "[Example 172, 9-[(9S)-[[[3-(thien-2-yl)-ethyl]amino]carbonyl]amino]-N-((2S)-4-diazo-3-oxo-2-butyl)-octahydro-6,10-dioxo-6H-(1S)-pyridazino[1,2-a][1,2]diazepine-1-carboxamide]", "values": [
      {"measurement": "Cathepsin B, percentage in parentheses beside IC50 value (% inhibition)", "setting": "Cathepsin B", "value": "20 (20%)"},
      {"measurement": "Papain, percentage in parentheses beside IC50 value (% inhibition)", "setting": "Papain", "value": 10, "unit": "%"},
      {"measurement": "IC50", "setting": "Cathepsin K", "value": 20, "unit": "µM"}
    ]},
    {"smiles": "O=C(NCCc1cccs1)N[C@H]1CCC(=O)N2CCC[C@@H](C(=O)N[C@@H](Cc3ccccc3)C(=O)COC(=O)c3c(Cl)cccc3Cl)N2C1=O", "note": "[Example 224, 9-[(9S)-[[[2-(thien-2-yl)-ethyl]amino]carbonyl]amino]-N-[(2S)-1-phenyl-4-[(-2,6-dichlorobenzoyl)oxy]-3-oxo-2-butyl]-octahydro-6,10-dioxo-6H-(1S)-pyridazino[1,2-a][1,2]diazepine-1-carboxamide]", "values": [
      {"measurement": "IC50", "setting": "Cathepsin B", "value": 9, "unit": "µM"},
      {"measurement": "IC50", "setting": "Papain", "value": 8, "unit": "µM"},
      {"measurement": "IC50", "setting": "Cathepsin K", "value": 20, "unit": "µM"}
    ]},
    {"smiles": "CC(C)[C@H](NC(=O)[C@@H]1CCCN2C(=O)CC[C@H](NC(=O)Nc3ccc(Oc4ccccc4)cc3)C(=O)N12)C(=O)CSc1nc2ccccc2s1", "note": "[Example 390]", "values": [
      {"measurement": "IC50", "setting": "Cathepsin B", "value": 19, "unit": "µM"},
      {"measurement": "IC50", "setting": "Papain", "value": 6, "unit": "µM"},
      {"measurement": "IC50", "setting": "Cathepsin K", "value": 20, "unit": "µM"}
    ]}
  ]
}
